Source: patent US10647700B2, “EZH2 inhibitor and use thereof” (TARAPEUTICS SCIENCE INC., priority 2017, dated 2020)

Legend:
[1] = molecular target: PRC2 protein complex comprising EZH2(Y641F) (Homo sapiens (Human), UniProt Q15910, Y641F); assay: EZH2(Y641F) TR-FRET enzymatic activity assay; details: for activity compared with control compounds in the assay using a TR-FRET kit: versus GSK126 and EPZ6438
Method: Subsequently 5 μL of the assay antibody, H3K27me3-Eu(K)Ab (purchased from cisbio bioassays, USA, #61 KC3KAE) and 5 μL Streptavidin-XL665 (purchased from cisbio bioassays, USA, #610SAXLA), were added and incubated for 1 hour at room temperature.

[2] = tested on: H3K27m3 methylation in Pfeiffer cells; assay: Western Blot of H3K27m3 methylation in Pfeiffer cells; assay type: cell-based; details: for IC50: 72 hours treatment, H3K27m3 methylation by Western Blot; for effect compared with control compounds in Western Blot verification on cells: versus EPZ6438 and GSK126
Method: Meanwhile, the inventors further conducted Western Blot with Pfeiffer cells (purchased from ATCC, USA) for verification. […] Effect of compounds on H3K27m3 methylation in cells was assessed.

[3] = molecular target: EZH2 (Homo sapiens (Human), UniProt Q15910); assay: E-cadherin promoter luciferase reporter gene primary screening in 293T cells; assay type: cell-based; details: 293T cells treated for 24 hours, Dual-Glo luciferase; for 1 μM relative fluorescence intensity: compound 1 μM; for 10 μM relative fluorescence intensity: compound 10 μM
Sequence of EZH2 (Q15910 whole entry): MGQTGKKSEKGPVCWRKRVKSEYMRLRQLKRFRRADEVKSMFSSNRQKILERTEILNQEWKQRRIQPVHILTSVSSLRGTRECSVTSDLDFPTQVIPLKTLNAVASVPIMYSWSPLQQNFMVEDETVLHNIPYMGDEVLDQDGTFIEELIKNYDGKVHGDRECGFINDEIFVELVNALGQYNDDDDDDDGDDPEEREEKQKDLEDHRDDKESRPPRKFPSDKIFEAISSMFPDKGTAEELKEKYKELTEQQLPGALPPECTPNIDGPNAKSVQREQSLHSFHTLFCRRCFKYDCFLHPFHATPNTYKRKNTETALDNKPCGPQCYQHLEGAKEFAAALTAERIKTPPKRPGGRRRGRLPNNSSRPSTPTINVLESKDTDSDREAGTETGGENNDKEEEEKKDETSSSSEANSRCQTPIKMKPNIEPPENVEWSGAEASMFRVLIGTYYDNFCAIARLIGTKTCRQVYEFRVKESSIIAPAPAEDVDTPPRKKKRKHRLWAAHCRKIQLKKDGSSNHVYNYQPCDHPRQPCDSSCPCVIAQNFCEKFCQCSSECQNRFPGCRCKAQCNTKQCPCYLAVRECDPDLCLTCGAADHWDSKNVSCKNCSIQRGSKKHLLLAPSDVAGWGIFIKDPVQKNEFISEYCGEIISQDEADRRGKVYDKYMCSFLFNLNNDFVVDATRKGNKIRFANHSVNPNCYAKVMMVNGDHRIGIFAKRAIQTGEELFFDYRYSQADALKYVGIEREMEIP
Sequence of EZH2 (O75530 whole entry partner): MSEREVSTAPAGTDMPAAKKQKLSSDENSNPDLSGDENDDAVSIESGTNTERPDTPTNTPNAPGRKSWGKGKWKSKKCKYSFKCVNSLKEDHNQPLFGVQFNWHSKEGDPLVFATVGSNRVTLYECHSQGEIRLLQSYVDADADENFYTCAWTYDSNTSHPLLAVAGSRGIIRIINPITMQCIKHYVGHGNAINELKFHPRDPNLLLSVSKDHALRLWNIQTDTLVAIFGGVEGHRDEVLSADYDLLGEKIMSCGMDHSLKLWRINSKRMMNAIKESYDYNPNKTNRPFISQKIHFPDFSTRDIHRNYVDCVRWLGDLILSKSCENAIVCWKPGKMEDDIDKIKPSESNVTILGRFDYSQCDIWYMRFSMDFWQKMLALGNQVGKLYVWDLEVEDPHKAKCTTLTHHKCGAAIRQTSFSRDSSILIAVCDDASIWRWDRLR
Sequence of EZH2 (Q15022 whole entry partner): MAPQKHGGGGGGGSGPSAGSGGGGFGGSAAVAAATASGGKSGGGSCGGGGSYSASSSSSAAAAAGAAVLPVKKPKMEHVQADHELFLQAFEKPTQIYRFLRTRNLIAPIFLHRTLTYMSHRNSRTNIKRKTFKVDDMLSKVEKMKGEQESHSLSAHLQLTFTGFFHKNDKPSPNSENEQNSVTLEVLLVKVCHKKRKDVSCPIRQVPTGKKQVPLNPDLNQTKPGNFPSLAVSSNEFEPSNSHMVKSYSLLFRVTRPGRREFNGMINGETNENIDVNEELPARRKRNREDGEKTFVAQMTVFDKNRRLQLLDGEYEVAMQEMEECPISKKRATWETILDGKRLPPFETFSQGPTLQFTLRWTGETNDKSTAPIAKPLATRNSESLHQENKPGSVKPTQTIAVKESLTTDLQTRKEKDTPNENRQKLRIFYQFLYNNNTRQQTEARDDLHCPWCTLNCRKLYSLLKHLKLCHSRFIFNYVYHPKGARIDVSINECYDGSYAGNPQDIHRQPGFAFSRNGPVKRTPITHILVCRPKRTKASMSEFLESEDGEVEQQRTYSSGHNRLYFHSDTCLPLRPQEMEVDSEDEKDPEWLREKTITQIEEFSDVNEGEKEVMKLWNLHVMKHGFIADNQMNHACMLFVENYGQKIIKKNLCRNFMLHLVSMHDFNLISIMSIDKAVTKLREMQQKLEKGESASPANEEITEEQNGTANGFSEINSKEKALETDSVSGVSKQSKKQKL
Sequence of EZH2 (Q09028 whole entry partner): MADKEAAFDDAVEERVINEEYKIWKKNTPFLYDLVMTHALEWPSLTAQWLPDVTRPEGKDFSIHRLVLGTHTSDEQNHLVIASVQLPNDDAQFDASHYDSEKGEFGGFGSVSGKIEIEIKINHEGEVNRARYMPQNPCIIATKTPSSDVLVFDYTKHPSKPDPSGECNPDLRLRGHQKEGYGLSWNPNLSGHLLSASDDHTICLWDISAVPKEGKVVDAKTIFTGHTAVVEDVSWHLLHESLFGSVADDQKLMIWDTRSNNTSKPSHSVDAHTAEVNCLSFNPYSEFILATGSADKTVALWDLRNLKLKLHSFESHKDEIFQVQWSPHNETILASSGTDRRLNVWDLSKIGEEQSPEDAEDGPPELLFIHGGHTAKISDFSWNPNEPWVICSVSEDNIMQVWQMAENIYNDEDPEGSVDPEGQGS
From the text: EZH2 suppresses the expression of downstream E-cadherin, and upon EZH2 suppression, expression of E-cadherin will increase. Based on such principle, a reporter gene expression vector was constructed using luciferase.
The amplified fragments after PCR and the PGL4.1 vector (purchased from TAKARA, Japan) were respectively subjected to enzyme digestion with SacI and BglII (purchased from TAKARA, Japan), and then purified with PCR cleanup kit (Axygen PCR cleanup kit). Subsequently, the purified and enzyme-digested PCR products was ligated to the purified and enzyme-digested PGL4.1 vector using ligase solution I (DNA Ligation Kit Ver.2.1, purchased from TAKARA, Japan), and subjected to transformation. Single clones were then screened out and subjected to sequencing, and the obtained positive plasmid containing promoter fragments of Ecadherin was named E-cadherin RE-PGL4.1.
Meanwhile, a Renilla fluorescent vector was constructed using PCDNA4.1 (purchased from Thermofisher, USA) as the template to amplify the fragment of CMV promoter. After enzymatic digestion of the amplified CMV sequences and pGL4.70 vector (purchased from Promega, USA) with KpnI and XhoI (purchased from Promega, USA), purification was conducted with PCR cleanup kit (Axygen PCR cleanup kit). Then the enzyme-digested PCR product was ligated to the enzyme-digested PGL4.70 vector using ligase solution I (DNA Ligation Kit Ver.2.1, purchased from TAKARA, Japan) and the resultant was subjected to transformation. Subsequently single clones were screened and subjected to sequencing, and the obtained plasmid that contained CMV sequence was named as Plasmid Renilla luciferase-pGL4.70. Said plasmid utilized CMV promoter to achieve high expression of Renilla luciferase, which served as the control fluorescence for the primary screening system.
The cells were firstly added with 20 μL Dual-Glo® Luciferase Assay Reagent, then incubated under room temperature for 10 minutes, and read on microplate reader Spectramax i3 (Molecular Devices, USA) to obtain the data of primary screening, which is shown in Table 1.

Sequence of PRC2 protein complex comprising EZH2(Y641F) (Q15910 whole entry Y641F): as the sequence (Q15910 whole entry) above, with Y641F counted along it
Sequence of PRC2 protein complex comprising EZH2(Y641F) (O75530 whole entry partner): as the sequence (O75530 whole entry partner) above
Sequence of PRC2 protein complex comprising EZH2(Y641F) (Q15022 whole entry partner): as the sequence (Q15022 whole entry partner) above
Sequence of PRC2 protein complex comprising EZH2(Y641F) (Q09028 whole entry partner): as the sequence (Q09028 whole entry partner) above
Sequence of PRC2 protein complex comprising EZH2(Y641F) (Q6ZN18 whole entry partner): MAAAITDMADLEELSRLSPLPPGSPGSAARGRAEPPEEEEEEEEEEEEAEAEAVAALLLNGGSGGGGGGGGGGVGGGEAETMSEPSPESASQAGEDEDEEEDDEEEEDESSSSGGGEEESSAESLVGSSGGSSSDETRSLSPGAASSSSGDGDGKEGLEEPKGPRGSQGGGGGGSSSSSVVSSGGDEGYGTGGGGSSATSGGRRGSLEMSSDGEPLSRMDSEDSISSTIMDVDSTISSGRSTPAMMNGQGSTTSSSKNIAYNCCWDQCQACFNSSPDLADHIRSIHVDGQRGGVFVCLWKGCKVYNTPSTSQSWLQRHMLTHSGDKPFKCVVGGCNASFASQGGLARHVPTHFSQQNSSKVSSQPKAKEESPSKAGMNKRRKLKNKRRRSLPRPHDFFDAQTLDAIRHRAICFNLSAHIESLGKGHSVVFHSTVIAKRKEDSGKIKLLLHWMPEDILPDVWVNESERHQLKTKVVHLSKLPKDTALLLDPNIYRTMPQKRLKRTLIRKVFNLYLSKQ

IC50 [1] [nM]	IC50 ([2]; Homo sapiens) [µM]	1 μM relative fluorescence intensity [3]	10 μM relative fluorescence intensity [3]	IC50 [2] [µM]	SMILES	activity compared with control compounds in the assay using a TR-FRET kit [1]	effect compared with control compounds in Western Blot verification on cells [2]
80.6	0.073	–	–	–	CCN(C(=O)C1CCCC1)c1cc(-c2ccc(CN3CCN(C(=O)OC(C)(C)C)CC3)cc2)cc(C(=O)NCc2c(C)cc(C)[nH]c2=O)c1C [Compound 24, tert-butyl-4-((3′-(((4,6-dimethyl-2-oxo-1,2-dihydropyridin-3-yl)methyl)carbamoyl)-5′-(N-ethylcyclopentanecarboxamido)-4′-methyl-[1,1′-diphenyl]-4-yl)methyl)piperazin-1-carboxylate]	superior activity than control compounds GSK126 and EPZ6438	–
58.6	0.063	116.28	228.14	–	CCN(C(=O)C1CCCC1)c1cc(-c2ccc(CN3CCNCC3)cc2)cc(C(=O)NCc2c(C)cc(C)[nH]c2=O)c1C [Compound 25, N-((4,6-dimethyl-2-oxo-1,2-dihydropyridin-3-yl)methyl)-5-(N-ethylcyclopentanecarboxamido)-4-methyl-4′-((4-piperazin-1-yl)methyl)-4-methyl-[1,1′-diphenyl]-3-carboxamide]	superior activity than control compounds GSK126 and EPZ6438	–
–	2.6	176.86	364.77	–	CCN(C(=O)C1CCCC1)c1cc(-c2ccc(N3CCN(C(=O)OC(C)(C)C)CC3)nc2)cc(C(=O)NCc2c(C)cc(C)[nH]c2=O)c1C [Compound 29, tertbutyl-4-(5-(3-(((4,6-dimethyl-2-oxo-1,2-dihydropyridin-3-yl)methyl)carbamoyl)-5-(N-ethylcyclopentanecarboxamido)-4-methylphenyl)pyridin-2-yl)piperazin-1-carboxylate]	–	–
444	0.087	–	–	–	CCN(C(=O)C1CCCC1)c1cc(-c2ccc(N3CCNCC3)cc2)cc(C(=O)NCc2c(C)cc(C)[nH]c2=O)c1C [Compound 31, N-((4,6-dimethyl-2-oxo-1,2-dihydropyridin-3-yl)methyl)-5-(N-ethylcyclopentanecarboxamido)-4-methyl-4′-(piperazin-1-yl)-[1,1′-diphenyl]-3-carboxamide]	–	–
–	0.67	123.27	224.69	–	CCN(C(=O)C1CCCC1)c1cc(C#N)cc(C(=O)NCc2c(C)cc(C)[nH]c2=O)c1C [Compound 33, 5-cyano-N-((4,6-dimethyl-2-oxo-1,2-dihydropyridin-3-yl)methyl)-3-(N-ethylcyclopentanecarboxamido)-2-methylbenzamide]	–	–
515	0.23	–	–	–	CCN(C(=O)C1CCCC1)c1cc(-c2ccnc(N3CCN(CC4CC4)CC3)c2)cc(C(=O)NCc2c(C)cc(C)[nH]c2=O)c1C [Compound 38, 5-(2-(4-(cyclopropylmethyl)piperazin-1-yl)pyridin-4-yl)-N-((4,6-dimethyl-2-oxo-1,2-dihydropyridin-3-yl)methyl)-3-(N-ethylcyclopentanecarboxamido)-2-methylbenzamide]	–	–
220	0.24	–	–	–	CCN(C(=O)C1CCCC1)c1cc(-c2ccc(OCCN3CCOCC3)cc2)cc(C(=O)NCc2c(C)cc(C)[nH]c2=O)c1C [Compound 40, N-((4,6-dimethyl-2-oxo-1,2-dihydropyridin-3-yl)methyl)-5-(N-ethylcyclopentanecarboxamido)-4-methyl-4′-(2-morpholinoethoxyl)-[1,1′-diphenyl]-3-carboxamide]	–	–
103	0.43	–	–	–	CCN(C(=O)C1CCCC1)c1cc(-c2ccc(OCCN3CCOCC3)cc2C)cc(C(=O)NCc2c(C)cc(C)[nH]c2=O)c1C [Compound 63, N-((4,6-dimethyl-2-oxo-1,2-dihydropyridin-3-yl)methyl)-5-(N-ethylcyclopentanecarboxamido)-2′,4-dimethyl-4′-(2-morpholinoethoxyl)-[1,1′-diphenyl]-3-carboxamide]	superior activity than control compounds GSK126 and EPZ6438	–
103	0.03	–	–	–	CCN(C(=O)C1CC1)c1cc(-c2ccc(OCCCN3CCOCC3)cc2C)cc(C(=O)NCc2c(C)cc(C)[nH]c2=O)c1C [Compound 64, N-((4,6-dimethyl-2-oxo-1,2-dihydropyridin-3-yl)methyl)-5-(N-ethylcyclopropanecarboxamido)-2′,4-dimethyl-4′-(3-morpholinopropoxy)-[1,1′-diphenyl]-3-carboxamide]	superior activity than control compounds GSK126 and EPZ6438	superior effects than control compounds EPZ6438 and GSK126
29	0.024	–	–	–	CCN(C(=O)C1CC1)c1cc(-c2ccc(OCCCN3CCOCC3)c(F)c2)cc(C(=O)NCc2c(C)cc(C)[nH]c2=O)c1C [Compound 65, N-((4,6-dimethyl-2-oxo-1,2-dihydropyridin-3-yl)methyl)-5-(N-ethylcyclopropanecarboxamido)-3′-fluoro-4-methyl-4′-(3-morpholinopropoxy)-[1,1′-diphenyl]-3-carboxamide]	superior activity than control compounds GSK126 and EPZ6438	superior effects than control compounds EPZ6438 and GSK126
–	0.041	–	–	–	CCN(C(=O)C1CC1)c1cc(-c2cnc(N3CCN(CC4CC4)CC3)cc2C)cc(C(=O)NCc2c(C)cc(C)[nH]c2=O)c1C [Compound 71, 5-(6-(4-(cyclopropylmethyl)piperazin-1-yl)-4-methylpyridin-3-yl)-N-((4,6-dimethyl-2-oxo-1,2-dihydropyridin-3-yl)methyl)-3-(N-ethylcyclopropanecarboxamido)-2-methylbenzamide]	superior activity than control compounds GSK126 and EPZ6438	–
23	0.093	–	–	–	CCN(C(=O)C1CC1)c1cc(-c2ccc(OCCN3CCOCC3)c(F)c2)cc(C(=O)NCc2c(C)cc(C)[nH]c2=O)c1C [Compound 74, N-((4,6-dimethyl-2-oxo-1,2-dihydropyridin-3-yl)methyl)-5-(N-ethylcyclopropanecarboxamido)-3′-fluoro-4-methyl-4′-(2-morpholinoethoxyl)-[1,1′-diphenyl]-3-carboxamide]	superior activity than control compounds GSK126 and EPZ6438	–
–	–	–	–	1.4	CC[C@H](C)n1cc(C)c2c(C(=O)NCc3c(C)cc(C)[nH]c3=O)cc(-c3ccc(N4CCNCC4)nc3)cc21 [GSK126, reference compound]	–	–
